Experimental data from patent US20260297060A1, “COMPOUNDS FOR THE DEGRADATION OF MUTANT BRAF” (C4 THERAPEUTICS, INC., priority 2023, published 2026).
Read-outs that look alike come from different tables or passages of the source.

Biological target: T1, BRAF V600E (Homo sapiens, UniProt P15056+Q96SW2, V600E)
T1 construct: knock-in of the HiBiT tag to the endogenous BRAF V600E locus; host or cells: A375.10 (A375 clonal line, CRISPR HiBiT knock-in at the endogenous BRAF V600E locus)
Experiment: BRAF V600E HiBiT Degradation Assay
Format: cell-based
Procedure, shortened: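 Endogenous HiBiT knock-in on BRAF V600E in A375 cells (clone A375.10); 11-point half-log series, top 10 μM, 2, 6 or 24 h at 37° C. Lytic HiBiT luminescence, background-subtracted, normalized to DMSO; 4-parameter fit gives DC50, Emax (residual protein) and IP (inflection point).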

[1] = A375.10 cells, BRAF V600E, 2 hours, inflection point, read-out: HiBiT-Degradation A375.10 BRAF 2 hours IP
[2] = A375.10 cells, BRAF V600E, 2 hours, read-out: HiBiT-Degradation A375.10 BRAF 2 hours DC50
[3] = A375.10 cells, BRAF V600E, 6 hours, inflection point, read-out: HiBiT-Degradation A375.10 BRAF 6 hours IP
[4] = A375.10 cells, BRAF V600E, 6 hours, read-out: HiBiT-Degradation A375.10 BRAF 6 hours DC50
[5] = A375.10 cells, BRAF V600E, 6 hours, residual protein remaining, read-out: HiBiT-Degradation A375.10 BRAF 6 hours Emax
[6] = A375.10 cells, HiBiT, BRAF V600E, 24 hours, read-out: HiBiT-Degradation A375.10 BRAF 24 hours DC50
[7] = A375.10 cells, HiBiT, BRAF V600E, 24 hours, read-out: HiBiT-Degradation A375.10 BRAF 24 hours Emax
[8] = A375.10 cells, HiBiT, BRAF V600E, 24 hours, read-out: HiBiT-Degradation A375.10 BRAF 24 hours IP
[9] = read-out: HiBiT-Degradation A375.10 BRAF 2 hours Emax, A375.10 cells, BRAF V600E, 2 hours, residual protein remaining
[10] = A375.10 cells, BRAF V600E, 2 hours, residual protein remaining, read-out: HiBiT-Degradation A375.10 BRAF 2 hours Emax

T1 sequence (P15056 whole entry V600E): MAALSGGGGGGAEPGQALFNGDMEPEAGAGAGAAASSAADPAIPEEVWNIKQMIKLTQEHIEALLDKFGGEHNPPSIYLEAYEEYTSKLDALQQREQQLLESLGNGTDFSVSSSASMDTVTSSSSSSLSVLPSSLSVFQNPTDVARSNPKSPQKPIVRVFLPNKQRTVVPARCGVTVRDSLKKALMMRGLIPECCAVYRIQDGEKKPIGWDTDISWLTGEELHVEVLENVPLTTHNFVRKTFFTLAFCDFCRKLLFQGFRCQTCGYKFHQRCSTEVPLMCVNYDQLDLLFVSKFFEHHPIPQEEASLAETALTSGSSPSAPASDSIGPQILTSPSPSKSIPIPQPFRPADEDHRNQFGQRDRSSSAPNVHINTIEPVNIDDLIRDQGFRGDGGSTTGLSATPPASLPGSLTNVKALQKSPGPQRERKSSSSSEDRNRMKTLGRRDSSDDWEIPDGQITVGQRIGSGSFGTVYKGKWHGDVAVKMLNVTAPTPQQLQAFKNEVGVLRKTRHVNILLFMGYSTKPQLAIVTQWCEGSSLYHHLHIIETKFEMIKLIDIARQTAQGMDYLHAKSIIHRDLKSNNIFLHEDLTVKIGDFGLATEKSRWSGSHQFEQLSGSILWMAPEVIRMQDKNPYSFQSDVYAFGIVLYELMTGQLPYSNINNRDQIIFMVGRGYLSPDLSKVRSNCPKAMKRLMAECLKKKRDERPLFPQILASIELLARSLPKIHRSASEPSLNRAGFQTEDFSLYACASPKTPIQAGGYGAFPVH
T1 sequence (Q96SW2 whole entry): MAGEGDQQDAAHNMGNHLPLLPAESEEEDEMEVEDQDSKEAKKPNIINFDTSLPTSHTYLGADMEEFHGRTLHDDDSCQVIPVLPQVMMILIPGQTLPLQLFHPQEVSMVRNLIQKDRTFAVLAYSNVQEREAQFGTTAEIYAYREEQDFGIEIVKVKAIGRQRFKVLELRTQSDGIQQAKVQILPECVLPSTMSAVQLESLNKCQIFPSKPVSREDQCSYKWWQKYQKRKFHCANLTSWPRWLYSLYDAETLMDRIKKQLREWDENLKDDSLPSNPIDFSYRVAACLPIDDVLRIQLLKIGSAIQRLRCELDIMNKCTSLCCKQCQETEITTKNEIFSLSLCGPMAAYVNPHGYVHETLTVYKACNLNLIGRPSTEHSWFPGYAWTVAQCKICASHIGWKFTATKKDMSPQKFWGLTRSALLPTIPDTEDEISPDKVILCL
T1 sequence (Q16531 whole entry partner): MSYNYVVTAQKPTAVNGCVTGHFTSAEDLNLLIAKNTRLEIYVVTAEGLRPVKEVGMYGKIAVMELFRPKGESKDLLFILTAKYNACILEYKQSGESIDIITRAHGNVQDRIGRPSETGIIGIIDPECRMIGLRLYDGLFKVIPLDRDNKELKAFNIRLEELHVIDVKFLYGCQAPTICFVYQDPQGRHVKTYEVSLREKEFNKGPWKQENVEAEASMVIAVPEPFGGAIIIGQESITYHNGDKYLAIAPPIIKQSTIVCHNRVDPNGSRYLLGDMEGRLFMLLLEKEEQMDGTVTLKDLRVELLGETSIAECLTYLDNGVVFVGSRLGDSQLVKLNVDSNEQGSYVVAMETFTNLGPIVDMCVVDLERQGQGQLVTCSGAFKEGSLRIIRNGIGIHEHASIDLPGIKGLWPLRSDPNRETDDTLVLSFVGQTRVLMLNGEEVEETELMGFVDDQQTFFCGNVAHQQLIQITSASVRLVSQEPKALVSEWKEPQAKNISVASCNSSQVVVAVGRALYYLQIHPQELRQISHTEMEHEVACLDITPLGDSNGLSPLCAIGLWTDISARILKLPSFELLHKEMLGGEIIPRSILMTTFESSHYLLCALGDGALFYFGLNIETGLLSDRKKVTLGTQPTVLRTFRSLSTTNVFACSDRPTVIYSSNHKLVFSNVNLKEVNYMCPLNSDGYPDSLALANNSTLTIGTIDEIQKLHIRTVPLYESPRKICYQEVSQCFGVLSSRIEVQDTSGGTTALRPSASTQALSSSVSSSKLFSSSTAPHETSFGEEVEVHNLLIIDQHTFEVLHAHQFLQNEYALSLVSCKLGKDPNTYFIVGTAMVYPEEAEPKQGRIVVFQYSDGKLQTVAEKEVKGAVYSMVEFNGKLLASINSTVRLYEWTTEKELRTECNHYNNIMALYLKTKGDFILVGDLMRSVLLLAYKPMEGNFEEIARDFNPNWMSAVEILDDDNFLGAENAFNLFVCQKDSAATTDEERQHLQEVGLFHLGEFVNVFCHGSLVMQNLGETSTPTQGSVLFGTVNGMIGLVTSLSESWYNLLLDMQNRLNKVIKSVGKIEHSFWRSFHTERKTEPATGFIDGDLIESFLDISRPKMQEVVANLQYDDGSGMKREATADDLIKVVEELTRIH

Compound	DC50 [1]	DC50 [2]	DC50 [3]	DC50 [4]	Emax [5]	DC50 [6]	Emax [7]	DC50 [8]	Emax [9]	Emax [10]	HiBiT-Degradation A375.10 BRAF 2 hours Emax	HiBiT-Degradation A375.10 BRAF 24 hours Emax (A375.10 cells, HiBiT, BRAF V600E, 24 hours)
Cn1nc(N2CCC(=O)NC2=O)c2cc(F)c(C3CCC(N4CCC5(CC4)C[C@@H](n4cnc6ccc(Oc7c(F)ccc(NS(=O)(=O)N8CC[C@@H](F)C8)c7C#N)cc6c4=O)CO5)CC3)cc21 (single isomer, unassigned) [Compound 121]	< 1000 nM	< 1000 nM	< 1000 nM	< 1000 nM	< 50%	< 1000 nM	< 50%	< 1000 nM	–	< 50%	–	–
Cn1nc(N2CCC(=O)NC2=O)c2cc(F)c(C3CCC(N4CCC5(CC4)CC(n4cnc6ccc(Oc7c(F)ccc(NS(=O)(=O)N8CC[C@@H](F)C8)c7C#N)cc6c4=O)C5)CC3)cc21 (single isomer, unassigned) [Compound 122]	< 1000 nM	< 1000 nM	< 1000 nM	< 1000 nM	< 50%	< 1000 nM	< 50%	< 1000 nM	–	< 50%	–	–
CN(CCO)S(=O)(=O)Nc1ccc(F)c(Oc2ccc3ncn(C4CC5(CCN(C6CCC(c7cc8c(cc7F)c(N7CCC(=O)NC7=O)nn8C)CC6F)CC5)C4)c(=O)c3c2)c1C#N (single isomer, unassigned) [Compound 145, 6-[2-cyano-6-fluoro-3-[[2-hydroxyethyl(methyl)sulfamoyl]amino]phenoxy]-3-[7-[4-[3-(2,4-dioxohexahydropyrimidin-1-yl)-5-fluoro-1-methyl-indazol-6-yl]-2-fluoro-cyclohexyl]-7-azaspiro[3.5]nonan-2-yl]-4-oxo-quinazoline]	< 1000 nM	< 1000 nM	< 1000 nM	< 1000 nM	< 50%	< 1000 nM	< 50%	< 1000 nM	< 50%	–	–	–
CCN(C)S(=O)(=O)Nc1ccc(F)c(Oc2ccc3ncn(C4CC5(CCN(C6CCC(c7cc8c(cc7F)c(N7CCC(=O)NC7=O)nn8C)CC6F)CC5)C4)c(=O)c3c2)c1F (single isomer, unassigned) [Compound 184]	< 1000 nM	< 1000 nM	< 1000 nM	< 1000 nM	< 50%	< 1000 nM	< 50%	< 1000 nM	–	< 50%	–	–
CCN(C)S(=O)(=O)Nc1ccc(F)c(Oc2ccc3ncn(C4CC5(C4)CN(C4CCC(c6cc7c(cc6F)c(N6CCC(=O)NC6=O)nn7C)CC4)C5)c(=O)c3c2)c1C#N (single isomer, unassigned) [Compound 204, 6-[2-cyano-3-[[ethyl(methyl)sulfamoyl]amino]-6-fluoro-phenoxy]-3-[2-[4-[3-(2,4-dioxohexahydropyrimidin-1-yl)-5-fluoro-1-methyl-indazol-6-yl]cyclohexyl]-2-azaspiro[3.3]heptan-6-yl]-4-oxo-quinazoline]	< 1000 nM	< 1000 nM	–	–	–	< 1000 nM	–	< 1000 nM	–	–	*** (<=50%)	*** (<=50%)
CCN(C)S(=O)(=O)Nc1ccc(F)c(Oc2ccc3ncc(OC4CC5(CCN(C6CCC(c7cc8c(cc7F)c(N7CCC(=O)NC7=O)nn8C)CC6)CC5)C4)nc3c2)c1C#N (single isomer, unassigned) [Compound 218, 7-[2-cyano-3-[[ethyl(methyl)sulfamoyl]amino]-6-fluoro-phenoxy]-2-[[7-[4-[3-(2,4-dioxohexahydropyrimidin-1-yl)-5-fluoro-1-methyl-indazol-6-yl]cyclohexyl]-7-azaspiro[3.5]nonan-2-yl]oxy]quinoxaline]	< 1000 nM	< 1000 nM	–	–	–	< 1000 nM	< 50%	< 1000 nM	< 50%	–	–	–
CCN(C)S(=O)(=O)Nc1ccc(F)c(Oc2ccc3ncn([C@H]4COC5(CCN(C6CC7(C6)CN(c6cc8c(cc6F)c(N6CCC(=O)NC6=O)nn8C)C7)CC5)C4)c(=O)c3c2)c1C#N [Compound 26, (3R)-3-[6-[2-cyano-3-[[ethyl(methyl)sulfamoyl]amino]-6-fluoro-phenoxy]-4-oxo-quinazolin-3-yl]-8-[2-[3-(2,4-dioxohexahydropyrimidin-1-yl)-5-fluoro-1-methyl-indazol-6-yl]-2-azaspiro[3.3]heptan-6-yl]-1-oxa-8-azaspiro[4.5]decane]	< 1000 nM	< 1000 nM	< 1000 nM	< 1000 nM	< 50%	< 1000 nM	< 50%	< 1000 nM	< 50%	–	–	–

More lines, now with the values ahead:

DC50 [1]	DC50 [2]	DC50 [3]	DC50 [4]	Emax [5]	DC50 [6]	Emax [7]	DC50 [8]	Emax [9]	Emax [10]	HiBiT-Degradation A375.10 BRAF 2 hours Emax	HiBiT-Degradation A375.10 BRAF 24 hours Emax (A375.10 cells, HiBiT, BRAF V600E, 24 hours)	Compound
< 1000 nM	< 1000 nM	< 1000 nM	< 1000 nM	< 50%	< 1000 nM	< 50%	< 1000 nM	50 to 90%	–	–	–	CCN(C)S(=O)(=O)Nc1ccc(F)c(Oc2ccc3ncc(OCC4CCN(C5CCC(c6cc7c(cc6F)c(N6CCC(=O)NC6=O)nn7C)CC5)CC4)nc3c2)c1C#N (single isomer, unassigned) [Compound 118, 7-[2-cyano-3-[[ethyl(methyl)sulfamoyl]amino]-6-fluoro-phenoxy]-2-[[1-[4-[3-(2,4-dioxohexahydropyrimidin-1-yl)-5-fluoro-1-methyl-indazol-6-yl]cyclohexyl]-4-piperidyl]methoxy]quinoxaline]
< 1000 nM	< 1000 nM	< 1000 nM	< 1000 nM	< 50%	< 1000 nM	< 50%	< 1000 nM	–	< 50%	–	–	CCN(C)S(=O)(=O)Nc1ccc(F)c(Oc2ccc3ncn(CC4CCN(C5CCC(c6cc7c(cc6F)c(N6CCC(=O)NC6=O)nn7C)CC5)CC4)c(=O)c3c2)c1C#N (single isomer, unassigned) [Compound 126, 6-[2-cyano-3-[[ethyl(methyl)sulfamoyl]amino]-6-fluoro-phenoxy]-3-[[1-[4-[3-(2,4-dioxohexahydropyrimidin-1-yl)-5-fluoro-1-methyl-indazol-6-yl]cyclohexyl]-4-piperidyl]methyl]-4-oxo-quinazoline]
< 1000 nM	< 1000 nM	–	–	–	–	–	–	< 50%	–	–	–	CCN(C)S(=O)(=O)Nc1ccc(F)c(Oc2ccc3ncc([C@H]4COC5(CCN(C6CCC(c7cc8c(cc7F)c(N7CCC(=O)NC7=O)nn8C)CC6F)CC5)C4)nc3c2)c1C#N (single isomer, unassigned) [Compound 160]
< 1000 nM	< 1000 nM	< 1000 nM	< 1000 nM	< 50%	< 1000 nM	< 50%	< 1000 nM	–	< 50%	–	–	CCN(C)S(=O)(=O)Nc1ccc(F)c(Oc2ccc3ncn(C4CC5(CCN(C6CCC(c7cc8c(cc7F)c(N7CCC(=O)NC7=O)nn8C)CC6)CC5)C4)c(=O)c3c2)c1F (single isomer, unassigned) [Compound 178, 3-[7-[4-[3-(2,4-dioxohexahydropyrimidin-1-yl)-5-fluoro-1-methyl-indazol-6-yl]cyclohexyl]-7-azaspiro[3.5]nonan-2-yl]-6-[3-[[ethyl(methyl)sulfamoyl]amino]-2,6-difluoro-phenoxy]-4-oxo-quinazoline]
< 1000 nM	< 1000 nM	< 1000 nM	< 1000 nM	< 50%	< 1000 nM	< 50%	< 1000 nM	< 50%	–	–	–	CCN(C)S(=O)(=O)Nc1ccc(F)c(Oc2ccc3ncc(C4CC5(CCN(C6CCC(c7cc8c(cc7F)c(N7CCC(=O)NC7=O)nn8C)CC6)CC5)C4)nc3c2)c1C#N (single isomer, unassigned) [Compound 180, 7-[2-cyano-3-[[ethyl(methyl)sulfamoyl]amino]-6-fluoro-phenoxy]-2-[7-[4-[3-(2,4-dioxohexahydropyrimidin-1-yl)-5-fluoro-1-methyl-indazol-6-yl]cyclohexyl]-7-azaspiro[3.5]nonan-2-yl]quinoxaline]
< 1000 nM	1000 to 10000 nM	< 1000 nM	< 1000 nM	< 50%	< 1000 nM	< 50%	< 1000 nM	–	50 to 90%	–	–	CCN(C)S(=O)(=O)Nc1ccc(F)c(C(=O)c2ccc3ncn(C4CC5(CCN(C6CCC(c7cc8c(cc7F)c(N7CCC(=O)NC7=O)nn8C)CC6)CC5)C4)c(=O)c3c2)c1F (single isomer, unassigned) [Compound 182, 3-[7-[4-[3-(2,4-dioxohexahydropyrimidin-1-yl)-5-fluoro-1-methyl-indazol-6-yl]cyclohexyl]-7-azaspiro[3.5]nonan-2-yl]-6-[3-[[ethyl(methyl)sulfamoyl]amino]-2,6-difluoro-benzoyl]-4-oxo-quinazoline]
